Results as given in ChEMBL document CHEMBL5528046, “Discovery of Novel PROTAC Degraders of p300/CBP as Potential Therapeutics for Hepatocellular Carcinoma” (J Med Chem, 2024).
Activity calls are given as the source filed them. The calls are words filed in the database; no cut-off is given here.

How the values were obtained:
[1] = target: T1, Protein cereblon/Histone acetyltransferase p300 (Homo sapiens, UniProt Q09472+Q96SW2); assay: PROTAC activity at CRBN/p300 in human SK-HEP1 cells assessed as induction of p300 protein degradation at 1 uM incubated for 24 hrs relative to control; assay type: cell-based
T1 sequence (Q09472 2-2414 limits assumed): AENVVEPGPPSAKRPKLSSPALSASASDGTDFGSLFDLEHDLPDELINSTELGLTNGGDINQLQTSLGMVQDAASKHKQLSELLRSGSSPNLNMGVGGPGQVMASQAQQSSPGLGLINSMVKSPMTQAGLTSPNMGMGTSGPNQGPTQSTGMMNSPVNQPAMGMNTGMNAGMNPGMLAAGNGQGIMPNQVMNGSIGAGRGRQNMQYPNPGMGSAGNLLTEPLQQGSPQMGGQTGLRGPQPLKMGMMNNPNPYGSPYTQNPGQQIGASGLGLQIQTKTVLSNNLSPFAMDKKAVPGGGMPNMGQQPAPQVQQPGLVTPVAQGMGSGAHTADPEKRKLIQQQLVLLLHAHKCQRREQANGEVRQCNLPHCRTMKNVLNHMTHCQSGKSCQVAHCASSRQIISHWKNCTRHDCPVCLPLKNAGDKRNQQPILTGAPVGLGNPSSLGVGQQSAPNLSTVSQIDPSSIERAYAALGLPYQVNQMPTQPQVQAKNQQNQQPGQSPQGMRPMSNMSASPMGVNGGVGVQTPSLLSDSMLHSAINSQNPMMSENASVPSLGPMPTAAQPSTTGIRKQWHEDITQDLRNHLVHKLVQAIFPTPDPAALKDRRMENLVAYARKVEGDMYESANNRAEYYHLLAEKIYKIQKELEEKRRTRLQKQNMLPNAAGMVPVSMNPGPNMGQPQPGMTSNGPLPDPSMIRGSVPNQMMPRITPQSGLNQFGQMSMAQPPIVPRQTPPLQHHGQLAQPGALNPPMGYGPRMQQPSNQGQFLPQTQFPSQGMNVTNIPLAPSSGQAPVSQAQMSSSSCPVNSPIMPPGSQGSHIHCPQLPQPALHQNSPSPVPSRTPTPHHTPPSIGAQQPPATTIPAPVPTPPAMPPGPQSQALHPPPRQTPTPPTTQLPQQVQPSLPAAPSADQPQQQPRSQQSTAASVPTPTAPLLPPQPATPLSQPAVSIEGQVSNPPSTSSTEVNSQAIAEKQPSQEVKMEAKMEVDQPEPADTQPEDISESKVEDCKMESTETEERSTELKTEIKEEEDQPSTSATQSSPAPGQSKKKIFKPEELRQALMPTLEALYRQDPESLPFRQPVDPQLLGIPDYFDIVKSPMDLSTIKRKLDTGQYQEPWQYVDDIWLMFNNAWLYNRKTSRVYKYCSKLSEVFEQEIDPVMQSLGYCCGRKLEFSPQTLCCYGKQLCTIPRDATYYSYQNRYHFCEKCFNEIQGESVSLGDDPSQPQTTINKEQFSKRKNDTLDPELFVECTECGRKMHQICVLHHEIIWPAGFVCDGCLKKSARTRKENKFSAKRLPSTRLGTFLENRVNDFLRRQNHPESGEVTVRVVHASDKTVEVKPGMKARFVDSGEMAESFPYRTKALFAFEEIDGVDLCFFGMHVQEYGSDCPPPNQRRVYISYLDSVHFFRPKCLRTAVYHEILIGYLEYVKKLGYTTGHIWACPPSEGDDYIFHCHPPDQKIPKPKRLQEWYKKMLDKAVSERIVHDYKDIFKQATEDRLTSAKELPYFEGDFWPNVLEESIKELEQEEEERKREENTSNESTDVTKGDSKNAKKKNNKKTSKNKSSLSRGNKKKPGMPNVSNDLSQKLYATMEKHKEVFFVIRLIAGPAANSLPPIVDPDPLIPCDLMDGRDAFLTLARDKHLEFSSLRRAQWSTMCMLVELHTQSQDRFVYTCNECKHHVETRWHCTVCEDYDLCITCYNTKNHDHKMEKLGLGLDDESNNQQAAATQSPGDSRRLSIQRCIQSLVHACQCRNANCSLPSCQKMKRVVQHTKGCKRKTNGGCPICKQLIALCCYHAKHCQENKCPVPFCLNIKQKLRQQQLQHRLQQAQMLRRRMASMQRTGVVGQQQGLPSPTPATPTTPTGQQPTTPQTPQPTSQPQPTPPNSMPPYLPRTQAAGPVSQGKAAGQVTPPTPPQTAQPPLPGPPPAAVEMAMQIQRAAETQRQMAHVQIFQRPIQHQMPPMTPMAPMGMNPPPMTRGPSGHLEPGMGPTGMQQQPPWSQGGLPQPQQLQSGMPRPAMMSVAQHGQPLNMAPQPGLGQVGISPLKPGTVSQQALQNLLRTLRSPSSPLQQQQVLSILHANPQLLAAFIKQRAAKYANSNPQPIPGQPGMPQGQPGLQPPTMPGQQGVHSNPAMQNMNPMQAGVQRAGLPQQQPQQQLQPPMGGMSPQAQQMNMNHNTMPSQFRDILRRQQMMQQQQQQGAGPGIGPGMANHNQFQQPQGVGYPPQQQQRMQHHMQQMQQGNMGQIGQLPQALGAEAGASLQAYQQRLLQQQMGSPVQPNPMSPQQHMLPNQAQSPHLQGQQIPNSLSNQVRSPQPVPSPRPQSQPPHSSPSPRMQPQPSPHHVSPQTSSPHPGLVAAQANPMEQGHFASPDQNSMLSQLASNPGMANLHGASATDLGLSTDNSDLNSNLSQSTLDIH
T1 sequence (Q96SW2 whole entry partner): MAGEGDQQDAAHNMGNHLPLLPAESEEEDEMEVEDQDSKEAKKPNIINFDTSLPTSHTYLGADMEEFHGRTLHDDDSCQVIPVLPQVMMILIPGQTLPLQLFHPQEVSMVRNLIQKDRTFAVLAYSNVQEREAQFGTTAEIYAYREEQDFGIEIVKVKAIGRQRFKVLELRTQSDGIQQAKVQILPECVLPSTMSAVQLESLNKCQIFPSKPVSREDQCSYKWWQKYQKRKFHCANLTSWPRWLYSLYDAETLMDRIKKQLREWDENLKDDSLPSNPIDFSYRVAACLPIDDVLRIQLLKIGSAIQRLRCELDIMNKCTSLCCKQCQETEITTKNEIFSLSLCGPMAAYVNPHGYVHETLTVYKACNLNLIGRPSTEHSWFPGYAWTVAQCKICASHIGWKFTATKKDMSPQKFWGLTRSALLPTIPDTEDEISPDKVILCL

[2] = target: T1, Protein cereblon/Histone acetyltransferase p300; assay: PROTAC activity at CRBN/p300 in human SK-HEP1 cells assessed as induction of p300 protein degradation at 0.1 uM incubated for 24 hrs relative to control; assay type: cell-based
[3] = target: T1, Protein cereblon/Histone acetyltransferase p300; assay: PROTAC activity at CRBN/p300 in human SK-HEP1 cells assessed as induction of p300 protein degradation at 0.01 uM incubated for 24 hrs relative to control; assay type: cell-based
[4] = target: CREB-binding protein/Histone acetyltransferase p300 (Homo sapiens, UniProt Q09472+Q92793); assay: Inhibition of p300/CBP (unknown origin) using histone H3 (1 to 21 residues) as substrate incubated for 90 mins by AlphaLISA assay; assay type: protein assay
SK-HEP1 [5] = assay: Antiproliferative activity against human SK-HEP1 cells assessed as inhibition of cell growth incubated for 5 days by CCK-8 assay; assay type: functional, cell-based; settings: SK-HEP1, 120 h
[6] = Antiproliferative activity against human JHH7 cells assessed as inhibition of cell growth incubated for 5 days by CCK-8 assay; assay type: functional, cell-based; settings: JHH7, 120 h
SK-HEP1 [7] = assay: Induction of cell cycle arrest at G2/M phase in human SK-HEP1 cells assessed as reduction in CDK6 protein level at 2 uM incubated for 24 hrs by immunoblotting analysis (reference value: 100%); assay type: functional; set-up: scale not given: the % may be the effect or the level left
Mus musculus = assay: In vivo PROTAC activity at CRBN/p300 in nude mouse xenografted with human SK-HEP1 cells assessed as reduction in p300 protein level in tumor at 50 mg/kg, ip measured after 24 hrs by immunoblotting analysis; assay type: functional, organism-based
[8] = target: T1, Protein cereblon/Histone acetyltransferase p300; assay: PROTAC activity at CRBN/p300 in human SK-HEP1 cells assessed as increase in protein ubiquitination at 2 uM incubated for 24 hrs by immunoblotting analysis (reference value: 100%); assay type: cell-based
[9] = target: Protein cereblon/CREB-binding protein (Homo sapiens) (UniProt Q92793+Q96SW2); assay: In vivo PROTAC activity at CRBN/CBP in nude mouse xenografted with human SK-HEP1 cells assessed as reduction in CBP protein level in tumor at 50 mg/kg, ip measured after 24 hrs by immunoblotting analysis; assay type: functional, organism-based
SK-HEP1 [10] = assay: Induction of cell cycle arrest at G2/M phase in human SK-HEP1 cells assessed as SKP2 protein level at 2 uM incubated for 24 hrs by immunoblotting analysis (reference value: 100%); assay type: functional
[11] = target: T1, Protein cereblon/Histone acetyltransferase p300; assay: PROTAC activity at CRBN/p300 in human SK-HEP1 cells assessed as increase in protein ubiquitination at 2 uM pretreated with MG132 at 1 uM followed by compound treatment and further incubated for 24 hrs by immunoblotting analysis (reference value: 100%); assay type: cell-based

Row | Activity [1] [%] | Activity [2] [%] | Activity [3] [%] | SMILES | other results
1 | 15 | < 1 | < 1 | Cc1noc(C)c1-c1ccc2c(c1)nc([C@@H]1CCCC(=O)N1c1ccc(F)c(F)c1)n2C1CCN(C(=O)CCOCCNc2cccc3c2C(=O)N(C2CCC(=O)NC2=O)C3=O)CC1 (stereo partly specified) | 
2 | 19 | < 1 | < 1 | Cc1noc(C)c1-c1ccc2c(c1)nc([C@@H]1CCCC(=O)N1c1ccc(F)c(F)c1)n2C1CCN(C(=O)CCOCCOCCOCCNc2ccc3c(c2)C(=O)N(C2CCC(=O)NC2=O)C3=O)CC1 (stereo partly specified) | 
3 | 3 | 2 | < 1 | Cc1noc(C)c1-c1ccc2c(c1)nc([C@@H]1CCCC(=O)N1c1ccc(F)c(F)c1)n2C1CCN(C(=O)CNc2ccc3c(c2)C(=O)N(C2CCC(=O)NC2=O)C3=O)CC1 (stereo partly specified) | 
4 | 49 | < 1 | < 1 | Cc1noc(C)c1-c1ccc2c(c1)nc([C@@H]1CCCC(=O)N1c1ccc(F)c(F)c1)n2C1CCN(C(=O)CCOCCOCCOCCOCCNc2cccc3c2C(=O)N(C2CCC(=O)NC2=O)C3=O)CC1 (stereo partly specified) | 
5 | 4 | < 1 | < 1 | Cc1noc(C)c1-c1ccc2c(c1)nc([C@@H]1CCCC(=O)N1c1ccc(F)c(F)c1)n2C1CCN(C2CN(c3cccc4c3C(=O)N(C3CCC(=O)NC3=O)C4=O)C2)CC1 (stereo partly specified) | 
6 | 39 | < 1 | < 1 | Cc1noc(C)c1-c1ccc2c(c1)nc([C@@H]1CCCC(=O)N1c1ccc(F)c(F)c1)n2C1CCN(c2cccc3c2C(=O)N(C2CCC(=O)NC2=O)C3=O)CC1 (stereo partly specified) | 
7 | 28 | 8 | < 1 | Cc1noc(C)c1-c1ccc2c(c1)nc([C@@H]1CCCC(=O)N1c1ccc(F)c(F)c1)n2C1CN(C2CCN(c3cccc4c3C(=O)N(C3CCC(=O)NC3=O)C4=O)CC2)C1 (stereo partly specified) | 
8 | 29 | < 1 | < 1 | Cc1noc(C)c1-c1ccc2c(c1)nc([C@@H]1CCCC(=O)N1c1ccc(F)c(F)c1)n2C1CCN(C(=O)CCOCCOCCNc2ccc3c(c2)C(=O)N(C2CCC(=O)NC2=O)C3=O)CC1 (stereo partly specified) | 
9 | 8 | < 1 | < 1 | Cc1noc(C)c1-c1ccc2c(c1)nc([C@@H]1CCCC(=O)N1c1ccc(F)c(F)c1)n2C1CCN(C(=O)CCOCCOCCOCCNc2cccc3c2C(=O)N(C2CCC(=O)NC2=O)C3=O)CC1 (stereo partly specified) | 
10 | 25 | 2 | < 1 | Cc1noc(C)c1-c1ccc2c(c1)nc([C@@H]1CCCC(=O)N1c1ccc(F)c(F)c1)n2C1CCN(C(=O)CCOCCOCCNc2cccc3c2C(=O)N(C2CCC(=O)NC2=O)C3=O)CC1 (stereo partly specified) | 
11 | 28 | < 1 | < 1 | Cc1noc(C)c1-c1ccc2c(c1)nc([C@@H]1CCCC(=O)N1c1ccc(F)c(F)c1)n2C1CCN(C(=O)CCOCCOCCOCCOCCNc2ccc3c(c2)C(=O)N(C2CCC(=O)NC2=O)C3=O)CC1 (stereo partly specified) | 
12 | 18 | < 1 | < 1 | Cc1noc(C)c1-c1ccc2c(c1)nc([C@@H]1CCCC(=O)N1c1ccc(F)c(F)c1)n2C1CCN(C(=O)CCOCCNc2ccc3c(c2)C(=O)N(C2CCC(=O)NC2=O)C3=O)CC1 (stereo partly specified) | 
13 | 18 | < 1 | < 1 | Cc1noc(C)c1-c1ccc2c(c1)nc([C@@H]1CCCC(=O)N1c1ccc(F)c(F)c1)n2C1CCN(C(=O)CNc2cccc3c2C(=O)N(C2CCC(=O)NC2=O)C3=O)CC1 (stereo partly specified) | 

Second part, the compound before the results:

Row | SMILES | Activity [1] [%] | Activity [2] [%] | Activity [3] [%] | other results
14 | CC(=O)N1CC(n2c([C@@H]3CCCC(=O)N3c3ccc(F)c(F)c3)nc3cc(-c4c(C)noc4C)ccc32)C1 |  |  |  | IC50 [4]: 0.025 µM
15 | Cc1noc(C)c1-c1ccc2c(c1)nc([C@@H]1CCCC(=O)N1c1ccc(F)c(F)c1)n2C1CN(C2CCN(c3ccc4c(c3)C(=O)N(C3CCC(=O)NC3=O)C4=O)CC2)C1 (stereo partly specified) | 26 | < 1 | 4 | 
16 | CNC(=O)N1CCc2c(c(N3CCCc4cc(-c5cnn(C)c5)c(C(F)F)cc43)nn2C2CCN(C(=O)CCOCCOCCOCCOCCNc3ccc4c(c3)C(=O)N(C3CCC(=O)NC3=O)C4=O)CC2)C1 (stereo unspecified) | 18 | 7 | 3 | IC50 (SK-HEP1 [5]): > 20 µM; IC50 [6]: > 20 µM
17 | CC(=O)N1CCC(n2c([C@@H]3CCCC(=O)N3c3ccc(F)c(F)c3)nc3cc(-c4c(C)noc4C)ccc32)CC1 |  |  |  | Activity (SK-HEP1 [7]): 101%; IC50 (SK-HEP1 [5]): 4.36 µM; Activity (Mus musculus): inactive; Activity [8]: 105%; IC50 [4]: 0.026 µM; Activity [9]: inactive; IC50 [6]: > 20 µM; Activity (SK-HEP1 [10]): 117%; Activity [11]: 97%
18 | Cc1noc(C)c1-c1ccc2c(c1)nc([C@@H]1CCCC(=O)N1c1ccc(F)c(F)c1)n2C1CCN(C2CCN(c3ccc4c(c3)C(=O)N(C3CCC(=O)NC3=O)C4=O)CC2)CC1 (stereo partly specified) | 38 | 5 | 9 | 
19 | CO[C@H]1CC[C@H](n2c([C@@H]3CCCC(=O)N3c3ccc(F)c(F)c3)nc3cc(-c4c(C)noc4C)ccc32)CC1 [INOBRODIB] |  |  |  | Activity (SK-HEP1 [7]): 96%; IC50 (SK-HEP1 [5]): 4.68 µM; IC50 [6]: 9.7 µM; Activity (SK-HEP1 [10]): 95%
20 | Cc1noc(C)c1-c1ccc2c(c1)nc([C@@H]1CCCC(=O)N1c1ccc(F)c(F)c1)n2C1CN(C2CN(c3cccc4c3C(=O)N(C3CCC(=O)NC3=O)C4=O)C2)C1 (stereo partly specified) | 23 | < 1 | 3 | 
21 | Cc1noc(C)c1-c1ccc2c(c1)nc([C@@H]1CCCC(=O)N1c1ccc(F)c(F)c1)n2C1CCN(c2ccc3c(c2)C(=O)N(C2CCC(=O)NC2=O)C3=O)CC1 (stereo partly specified) | 32 | 9 | 6 | 
22 | Cc1noc(C)c1-c1ccc2c(c1)nc([C@@H]1CCCC(=O)N1c1ccc(F)c(F)c1)n2C1CN(C2CN(c3ccc4c(c3)C(=O)N(C3CCC(=O)NC3=O)C4=O)C2)C1 (stereo partly specified) | 27 | < 1 | < 1 | 
23 | Cc1noc(C)c1-c1ccc2c(c1)nc([C@@H]1CCCC(=O)N1c1ccc(F)c(F)c1)n2C1CCN(C2CCN(c3cccc4c3C(=O)N(C3CCC(=O)NC3=O)C4=O)CC2)CC1 (stereo partly specified) | 9 | 6 | 4 | 
